Results from patent US6737383B1, “Herbicidal oxadiazolidines” (priority 1999, dated 2004).

What was measured:
[1] = tested on: corn; test: Test B pre/postemergence corn; format: in vivo, Zea mays
Method in brief: (§1)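 Herbicidal effect was estimated by eye on a ten-point control scale after plants spent twelve to sixteen days in a greenhouse following soil or foliar treatment. Foliar sprays targeted plants at one to four leaves; all doses were formulated in a non-phytotoxic solvent with surfactant.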

[2] = tested on: pigweed; test: Test B pre/postemergence pigweed; format: in vivo, Amaranthus retroflexus; conditions: for Plant response rating, Redroot pigweed: scale of 0 to 10 where 0 is no effect and 10 is complete control
Method in brief: as §1

[3] = tested on: velvetleaf; test: Test B pre/postemergence velvetleaf; format: in vivo, Abutilon theophrasti; conditions: for Plant response rating, Velvetleaf: scale of 0 to 10 where 0 is no effect and 10 is complete control
Method in brief: as §1

[4] = tested on: surinam grass; test: Test B pre/postemergence surinam grass; format: in vivo, Brachiaria decumbens
Method in brief: as §1

[5] = tested on: soybean; test: Test B pre/postemergence soybean; format: in vivo, Glycine max; conditions: for Plant response rating, Soybean: scale of 0 to 10 where 0 is no effect and 10 is complete control
Method in brief: as §1

[6] = tested on: wild oat; test: Test B pre/postemergence wild oat; format: in vivo, Avena fatua; conditions: for Plant response rating, Wild oats: scale of 0 to 10 where 0 is no effect and 10 is complete control
Method in brief: as §1

[7] = tested on: rape; test: Test B pre/postemergence rape; format: in vivo, Brassica napus; conditions: for Plant response rating, Rape: scale of 0 to 10 where 0 is no effect and 10 is complete control
Method in brief: as §1

[8] = tested on: sugar beet; test: Test B pre/postemergence sugar beet; format: in vivo, Beta vulgaris; conditions: for Plant response rating, Sugarbeets: scale of 0 to 10 where 0 is no effect and 10 is complete control
Method in brief: as §1

[9] = tested on: blackgrass; test: Test B pre/postemergence blackgrass; format: in vivo, Alopecurus myosuroides
Method in brief: as §1

[10] = tested on: giant foxtail; test: Test B pre/postemergence giant foxtail; format: in vivo, Setaria faberii
Method in brief: as §1

[11] = tested on: cocklebur; test: Test B pre/postemergence cocklebur; format: in vivo, Xanthium strumarium
Method in brief: as §1

[12] = tested on: crabgrass; test: Test B pre/postemergence crabgrass; format: in vivo, Digitaria sanguinalis
Method in brief: as §1

[13] = tested on: wheat; test: Test B pre/postemergence wheat; format: in vivo, Triticum aestivum; conditions: for Plant response rating, Wheat: scale of 0 to 10 where 0 is no effect and 10 is complete control
Method in brief: as §1

[14] = tested on: morningglory; test: Test B pre/postemergence morningglory; format: in vivo, Ipomoea hederacea; conditions: for Plant response rating, Morningglory: scale of 0 to 10 where 0 is no effect and 10 is complete control
Method in brief: as §1

[15] = tested on: rice; test: Test B flood test rice; format: in vivo, Oryza sativa
Method in brief: (§2)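 Read-out is a visual response score from 0 (no effect) to 10 (complete control), assigned by comparison with untreated controls. Treatment was applied at the 2-leaf stage, and plants stayed in the greenhouse for twelve to sixteen days before scoring.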

[16] = tested on: smallflower flatsedge; test: Test B flood test smallflower flatsedge; format: in vivo, Cyperus difformis
Method in brief: as §2

[17] = Postemergence, Rate 250 g/ha, scale 0 to 10
[18] = Postemergence, Rate 500 g/ha, scale of 0 to 10 where 0 is no effect and 10 is complete control
[19] = Preemergence, Rate 62 g/ha, scale of 0 to 10 where 0 is no effect and 10 is complete control
[20] = Preemergence, Rate 125 g/ha, scale of 0 to 10 where 0 is no effect and 10 is complete control
[21] = Preemergence, Rate 250 g/ha, scale 0 to 10, 0 is no effect, 10 is complete control
[22] = Preemergence, Rate 500 g/ha, scale 0 to 10, 0 is no effect, 10 is complete control
[23] = Rate 62 g/ha, Postemergence, scale 0 to 10 (0 no effect, 10 complete control)
[24] = Rate 125 g/ha, Postemergence, scale 0 to 10, 0 is no effect, 10 is complete control
[25] = Rate 62 g/ha, flood test species, Pre-emergence, visual evaluation after twelve to sixteen days
[26] = Rate 125 g/ha, under heading Pre-emergence, flood test species, visual evaluation after twelve to sixteen days
[27] = Rate 250 g/ha, Pre-emergence (flood test species), scale 0 to 10, 0 is no effect, 10 is complete control
[28] = Rate 500 g/ha, Pre-emergence, flood test species, scale 0 to 10 (0 no effect, 10 complete control)

## CC(C)N(C(=O)n1oc(=O)n(C(CF)CF)c1=O)c1ccc(Cl)cc1 [Compound 468]
[1]; [17]
  Corn plant response rating: 0
[1]; [18]
  Corn plant response rating: 0
[1]; [19]
  Plant response rating, Corn: 0
[1]; [20]
  Plant response rating, Corn: 0
[1]; [21]
  Corn plant response rating: 0
[1]; [22]
  Corn plant response rating: 2
[1]; [23]
  Corn plant response rating: 0
[1]; [24]
  Corn plant response rating: 0
[2]; [17]
  Redroot pigweed plant response rating: 4
[2]; Preemergence, Rate 62 g/ha
  Plant response rating, Redroot pigweed: 0
[2]; Preemergence, Rate 125 g/ha
  Plant response rating, Redroot pigweed: 4
[2]; [21]
  Redroot pigweed plant response rating: 8
[2]; [22]
  Redroot pigweed plant response rating: 10
[2]; [23]
  Redroot pigweed plant response rating: 0
[2]; [24]
  Redroot pigweed plant response rating: 2
[3]; [17]
  Velvetleaf plant response rating: 2
[3]; Preemergence, Rate 62 g/ha
  Plant response rating, Velvetleaf: 0
[3]; Preemergence, Rate 125 g/ha
  Plant response rating, Velvetleaf: 0
[3]; [21]
  Velvetleaf plant response rating: 1
[3]; [22]
  Velvetleaf plant response rating: 4
[3]; [23]
  Velvetleaf plant response rating: 0
[3]; [24]
  Velvetleaf plant response rating: 0
[4]; Postemergence, Rate 250 g/ha, scale 0 to 10, 0 no effect, 10 complete control
  B. signalgrass plant response rating: 0
[4]; [18]
  B. signalgrass plant response rating: 0
[4]; [19]
  Plant response rating, B. signalgrass: 0
[4]; [20]
  Plant response rating, B. signalgrass: 2
[4]; [21]
  B. signalgrass plant response rating: 3
[4]; [22]
  B. signalgrass plant response rating: 4
[4]; [23]
  B. signalgrass plant response rating: 0
[4]; [24]
  B. signalgrass plant response rating: 0
[5]; [17]
  Soybean plant response rating: 1
[5]; Preemergence, Rate 62 g/ha
  Plant response rating, Soybean: 0
[5]; Preemergence, Rate 125 g/ha
  Plant response rating, Soybean: 0
[5]; [21]
  Soybean plant response rating: 0
[5]; [22]
  Soybean plant response rating: 0
[5]; [23]
  Soybean plant response rating: 1
[5]; [24]
  Soybean plant response rating: 1
[6]; [17]
  Wild oats plant response rating: 0
[6]; Preemergence, Rate 62 g/ha
  Plant response rating, Wild oats: 0
[6]; Preemergence, Rate 125 g/ha
  Plant response rating, Wild oats: 0
[6]; [21]
  Wild oats plant response rating: 3
[6]; [22]
  Wild oats plant response rating: 7
[6]; [23]
  Wild oats plant response rating: 0
[6]; [24]
  Wild oats plant response rating: 0
[7]; [17]
  Rape plant response rating: 0
[7]; Preemergence, Rate 62 g/ha
  Plant response rating, Rape: 0
[7]; Preemergence, Rate 125 g/ha
  Plant response rating, Rape: 0
[7]; [21]
  Rape plant response rating: 3
[7]; [22]
  Rape plant response rating: 6
[7]; [23]
  Rape plant response rating: 0
[7]; [24]
  Rape plant response rating: 0
[8]; [17]
  Sugarbeets plant response rating: 0
[8]; Preemergence, Rate 62 g/ha
  Plant response rating, Sugarbeets: 0
[8]; Preemergence, Rate 125 g/ha
  Plant response rating, Sugarbeets: 0
[8]; [21]
  Sugarbeets plant response rating: 2
[8]; [22]
  Sugarbeets plant response rating: 6
[8]; [23]
  Sugarbeets plant response rating: 0
[8]; [24]
  Sugarbeets plant response rating: 0
[9]; [17]
  Blackgrass plant response rating: 7
[9]; [18]
  Blackgrass plant response rating: 8
[9]; [19]
  Plant response rating, Blackgrass: 3
[9]; [20]
  Plant response rating, Blackgrass: 4
[9]; [21]
  Blackgrass plant response rating: 5
[9]; [22]
  Blackgrass plant response rating: 9
[9]; [23]
  Blackgrass plant response rating: 0
[9]; [24]
  Blackgrass plant response rating: 5
[10]; [17]
  Giant foxtail plant response rating: 9
[10]; [18]
  Giant foxtail plant response rating: 9
[10]; [19]
  Plant response rating, Giant foxtail: 6
[10]; [20]
  Plant response rating, Giant foxtail: 8
[10]; [21]
  Giant foxtail plant response rating: 9
[10]; [22]
  Giant foxtail plant response rating: 10
[10]; [23]
  Giant foxtail plant response rating: 1
[10]; [24]
  Giant foxtail plant response rating: 3
[11]; [17]
  Cocklebur plant response rating: 2
[11]; [18]
  Cocklebur plant response rating: 4
[11]; [19]
  Plant response rating, Cocklebur: 0
[11]; [20]
  Plant response rating, Cocklebur: 0
[11]; [21]
  Cocklebur plant response rating: 0
[11]; [22]
  Cocklebur plant response rating: 0
[11]; [23]
  Cocklebur plant response rating: 0
[11]; [24]
  Cocklebur plant response rating: 0
[12]; [17]
  Crabgrass plant response rating: 9
[12]; [18]
  Crabgrass plant response rating: 9
[12]; [19]
  Plant response rating, Crabgrass: 9
[12]; [20]
  Plant response rating, Crabgrass: 9
[12]; [21]
  Crabgrass plant response rating: 9
[12]; [22]
  Crabgrass plant response rating: 9
[12]; [23]
  Crabgrass plant response rating: 3
[13]; [17]
  Wheat plant response rating: 0
[13]; Preemergence, Rate 62 g/ha
  Plant response rating, Wheat: 0
[13]; Preemergence, Rate 125 g/ha
  Plant response rating, Wheat: 0
[13]; [21]
  Wheat plant response rating: 0
[13]; [22]
  Wheat plant response rating: 6
[13]; [23]
  Wheat plant response rating: 0
[13]; [24]
  Wheat plant response rating: 0
[14]; [17]
  Morningglory plant response rating: 4
[14]; Preemergence, Rate 62 g/ha
  Plant response rating, Morningglory: 0
[14]; Preemergence, Rate 125 g/ha
  Plant response rating, Morningglory: 0
[14]; [21]
  Morningglory plant response rating: 0
[14]; [22]
  Morningglory plant response rating: 2
[14]; [23]
  Morningglory plant response rating: 2
[14]; [24]
  Morningglory plant response rating: 3
[15]; [25]
  Plant response rating, Rice (0 to 10 scale, 0 is no effect, 10 is complete control): 0
[15]; [26]
  Rice plant response rating (0 to 10 scale, 0 is no effect, 10 is complete control): 0
[15]; [27]
  Rice plant response rating: 0
[15]; [28]
  Rice plant response rating: 0
[16]; [25]
  Plant response rating, S. Flatsedge (0 to 10 scale, 0 is no effect, 10 is complete control): 0
[16]; [26]
  S. Flatsedge plant response rating (0 to 10 scale, 0 is no effect, 10 is complete control): 0
[16]; [27]
  S. Flatsedge plant response rating: 0
[16]; [28]
  S. Flatsedge plant response rating: 0
